Structures are written as SMILES.

Holding throughout (assay type): in vivo
Experiment [1] has as its system cotton (GOSHI, Gossypium hirsutum L.). Kind of experiment: Test A: field trial, preharvest application of harvest aids alone and with Compound 4 to cotton (cv. Fibermax FM 989 RR). The settings on record: for Boll Opening (%) / Desiccation (%) / State of Defoliation (%): 841 g a.i./ha. Here is the method:
A field trial was conducted to evaluate the effects of mixtures of Compound 4 with commercial harvest aids on cotton (GOSHI, Gossypium hirsutum L.). Cotton seeds (cv. ‘Fibermax FM 989 RR’) were planted in mid spring season, 3.8 cm deep in a clay soil having 1.8% organic matter and a pH of 6.8. Plots were 9 m long by 3 m wide with rows spaced 96.5 cm apart. Seeds were spaced 10.2 cm apart within the rows. The field was managed using conventional tillage practices, and applications of herbicides and insecticides were used to maintain a healthy crop. The plots were arranged in a randomized complete block design with each treatment being replicated three times. Treatments were applied preharvest over the top of the crop in late summer, when approximately 65% of the bolls had opened, using a backpack sprayer delivering a spray volume of 140 L/ha using a pressure of 276 kPa. Treatments consisted of the commercial harvest aids tribufos and ethephon+AMADS alone and in combination with Compound 4, dissolved or suspended in water. The effects on the treated plants and untreated controls were recorded 4, 11 and 21 days after application. Plants were visually evaluated for harvest aid effects of boll opening, defoliation, desiccation, and whole plant (basal and terminal) regrowth inhibition. Results were calculated as the mean of the three replicates, based on a scale of 0 to 100 where 0 is no effect and 100 is complete expression of the effect.
(§1) Results for Tests A, B1 and B2 are given in Table A, B1 and B2 respectively. Plants were visually evaluated for harvest aid effects of boll opening, defoliation, desiccation, and whole plant (basal and terminal) regrowth inhibition. “State of Defoliation (%)” represents a visual rating at a given DAA of the overall reduction in foliage on treated plants in a plot. It is based on a scale of 0 to 100%, where 0 represents an amount of foliage similar to control plants, and 100 indicates no leaves present. Plant regrowth assessments at a given DAA were made relative to appropriate controls after effects of defoliation were observed. Regrowth of the basal (“plant stalk”, below the top 15.3 cm of the plants) and terminal (“plant terminal”, top 15.3 cm of the plants) portions of the plants were separately evaluated on a visual rating scale of 0 to 100%, where 0 indicates no regrowth, and 100 indicates complete regrowth. The regrowth evaluations involved overall assessment of renewed or continued growth and development, which included: node and internodal development and elongation, and leaf formation, development and growth. These regrowth evaluations were recorded as “Regrowth %” and subsequently converted in the tables to “Regrowth Inhibition (%)”, which was calculated as 100%−YT, where YT equals the mean Regrowth % of three replicates for a respective treatment.

For experiment [2] the test system is unchanged. Kind of experiment: Test B1: field trial, preharvest application of harvest aids alone and with Compound 4 to cotton (cv. DP 434). The conditions noted are these: for inhibition at 5 g/ha / inhibition at 10 g/ha / inhibition at 20 g/ha / inhibition at 421 g/ha / inhibition at 1262 g/ha: Gossypium hirsutum. Here is the method: A field trial was conducted to evaluate the effects of mixtures of Compound 4 with commercial harvest aids on cotton (GOSHI, Gossypium hirsutum L.). Delta and Pine Land Co. cotton seeds (cv. ‘DP 434’) were planted in mid spring season, 3.8-cm deep in a fine-texture loam soil comprising 40% sand, 36% silt, and 24% clay. Soil organic matter was 1.8%; pH was 6.6. Plots were 9.1 m long by 3.0 m wide with rows spaced 96.5 cm apart. Seeds were spaced 10.2 cm apart within the rows. The field was managed using conventional tillage practices, and applications of herbicides and insecticides were used to maintain a healthy crop. The plots were arranged in a randomized complete block design with each treatment being replicated four times. Treatments were applied preharvest over the top of the crop in late summer, when approximately 65% of the bolls had opened, using a tractor-mounted sprayer delivering a spray volume of 140 L/ha at a pressure of 241 kPa. Treatments consisted of the commercial harvest aids tribufos, ethephon, and ethephon+AMADS alone and in combination with Compound 4, dissolved or suspended in water. Plants were evaluated for harvest aid effects including defoliation and regrowth inhibition at 4, 7, 14, and/or 22 days after application (DAA). Individual results were recorded and data reported as the means of the three replicates.
as §1

Experiment [3] shares this test system. Kind of experiment: Test B2: field trial, preharvest application of harvest aids alone and with Compound 4 to cotton (cv. DP 117BRIIRF). The conditions noted are these: for inhibition at 5 g/ha / inhibition at 10 g/ha / inhibition at 20 g/ha / inhibition at 421 g/ha / inhibition at 1262 g/ha: Gossypium hirsutum, 336 h. Here is the method: A field trial was conducted to evaluate the effects of mixtures of Compound 4 with commercial harvest aids on cotton (GOSHI, Gossypium hirsutum L.). Delta and Pine Land Co. cotton seeds (cv. ‘DP 117BRIIRF’) were planted in mid spring season, 2.0-cm deep in a clay soil. Plots were 12.19 m long by 3.86 m wide with rows spaced 96.5 cm apart. The field was managed using conventional tillage practices, and applications of herbicides and insecticides were used to maintain a healthy crop. The plots were arranged in a randomized complete block design with each treatment being replicated four times. Treatments were applied preharvest over the top of the crop in late summer, when approximately 65% of the bolls had opened, using a tractor-mounted sprayer delivering a spray volume of 140.3 L/ha at a pressure of 193 kPa. Treatments consisted of the commercial harvest aids tribufos, ethephon, and ethephon+AMADS alone and in combination with Compound 4, dissolved or suspended in water. Plants were evaluated for harvest aid effects including defoliation and regrowth inhibition at 4, 7, and 14 DAA. Individual results were recorded and data reported as the means of the three replicates.
as §1

The mark [4] stands for this setting: treatments including Compound 4.
Where [5] appears, read: plant terminal and plant stalk, 14 DAA.

Turning to `COC(=O)c1nc(C2CC2)nc(N)c1Cl` [Compound 4, methyl 6-amino-5-chloro-2-cyclopropyl-4-pyrimidinecarboxylate], in experiment [1] (11 days after application), the “desiccation, combination with Compound 4 compared to ethephon+AMADS or tribufos alone” value is recorded as “increased”. Also, the “defoliation, combination with Compound 4 compared to ethephon+AMADS or tribufos alone” value in experiment [1] (21 days after application) is recorded as “dramatically increased”. Moreover, in experiment [1] (21 days after application), the “regrowth inhibition, combination with Compound 4 compared to ethephon+AMADS or tribufos alone” value is on record as “dramatically increased”. Moreover, the “boll opening effects of the commercial harvest aids in combination with Compound 4” value in experiment [1] (compared to the untreated plants) was “did not interfere”. Further, the “inhibition of basal and terminal regrowth” value in experiment [1] (setting [4]) is “effective for inhibiting both basal and terminal regrowth”; in experiment [2] (setting [4]) it was “effective for inhibiting both basal and terminal regrowth”; in experiment [3] (setting [4]), “effective for inhibiting both basal and terminal regrowth”. Besides, the “State of Defoliation (%)” value came out at 13% in experiment [2] (5 g a.i./ha, 4 DAA); 18% in experiment [2] (5 g a.i./ha, 7 DAA); 23% in experiment [2] (5 g a.i./ha, 14 DAA); 8% in experiment [2] (10 g a.i./ha, 4 DAA); 18% in experiment [2] (10 g a.i./ha, 7 DAA); 21% in experiment [2] (10 g a.i./ha, 14 DAA). Further, the “State of Defoliation (%)” value is 13% in experiment [2] (20 g a.i./ha, 4 DAA); 24% in experiment [2] (20 g a.i./ha, 7 DAA); 23% in experiment [2] (20 g a.i./ha, 14 DAA); 3% in experiment [3] (5 g a.i./ha, 4 DAA); 4% in experiment [3] (5 g a.i./ha, 7 DAA); 10% in experiment [3] (5 g a.i./ha, 14 DAA). Also, the “State of Defoliation (%)” value in experiment [3] (10 g a.i./ha, 4 DAA) came out at 3%; in experiment [3] (10 g a.i./ha, 7 DAA), 4%; in experiment [3] (10 g a.i./ha, 14 DAA), 11%; in experiment [3] (20 g a.i./ha, 4 DAA) it was 4%; in experiment [3] (20 g a.i./ha, 7 DAA), 9%; in experiment [3] (20 g a.i./ha, 14 DAA), 15%. Besides, the inhibition at 5 g/ha in experiment [2] (336 h, 5 g a.i./ha, 14 DAA, read-out: Plant Stalk (Below 15.3-cm) Regrowth Inhibition (%)) is 100%; in experiment [2] (336 h, 5 g a.i./ha, 14 DAA, read-out: Plant Terminal (Top 15.3-cm) Regrowth Inhibition (%)), 100%; in experiment [2] (528 h, 5 g a.i./ha, 22 DAA, read-out: Plant Stalk (Below 15.3-cm) Regrowth Inhibition (%)) it was 100%; in experiment [3] (5 g a.i./ha, 14 DAA, read-out: Plant Stalk (Below 15.3-cm) Regrowth Inhibition (%)) it was 100%; in experiment [3] (5 g a.i./ha, 14 DAA, read-out: Plant Terminal (Top 15.3-cm) Regrowth Inhibition (%)), 97%. For the same compound, the inhibition at 10 g/ha in experiment [2] (336 h, 10 g a.i./ha, 14 DAA, read-out: Plant Stalk (Below 15.3-cm) Regrowth Inhibition (%)) came to 100%; in experiment [2] (336 h, 10 g a.i./ha, 14 DAA, read-out: Plant Terminal (Top 15.3-cm) Regrowth Inhibition (%)), 100%; in experiment [2] (528 h, 10 g a.i./ha, 22 DAA, read-out: Plant Stalk (Below 15.3-cm) Regrowth Inhibition (%)) it was 100%; in experiment [3] (10 g a.i./ha, 14 DAA, read-out: Plant Stalk (Below 15.3-cm) Regrowth Inhibition (%)) it was 100%; in experiment [3] (10 g a.i./ha, 14 DAA, read-out: Plant Terminal (Top 15.3-cm) Regrowth Inhibition (%)) it was 100%. The inhibition at 20 g/ha is 100% in experiment [2] (336 h, 20 g a.i./ha, 14 DAA, read-out: Plant Stalk (Below 15.3-cm) Regrowth Inhibition (%)); 100% in experiment [2] (336 h, 20 g a.i./ha, 14 DAA, read-out: Plant Terminal (Top 15.3-cm) Regrowth Inhibition (%)); 100% in experiment [2] (528 h, 20 g a.i./ha, 22 DAA, read-out: Plant Stalk (Below 15.3-cm) Regrowth Inhibition (%)); 100% in experiment [3] (20 g a.i./ha, 14 DAA, read-out: Plant Stalk (Below 15.3-cm) Regrowth Inhibition (%)); 100% in experiment [3] (20 g a.i./ha, 14 DAA, read-out: Plant Terminal (Top 15.3-cm) Regrowth Inhibition (%)). Besides, the “regrowth inhibition, addition of Compound 4 compared to ethephon, ethephon+AMADS or tribufos alone” value in experiment [2] (setting [5]) and in experiment [3] (setting [5]) was “dramatically increased” throughout.

For the compound `CCCCSP(=O)(SCCCC)SCCCC` [Tribufos, S,S,S-tributylphosphorotrithioate, reference compound], the “Boll Opening (%)” value in experiment [1] (4 DAA) worked out at 70%; in experiment [1] (11 DAA) it was 78%. Further, the “Desiccation (%)” value is listed as 32% in experiment [1] (4 DAA) and 8% in experiment [1] (11 DAA). Besides, the “State of Defoliation (%)” value in experiment [1] (4 DAA) came out at 68%; in experiment [1] (11 DAA), 80%; in experiment [1] (21 DAA) it was 35%; in experiment [2] (421 g a.i./ha, 4 DAA) it was 49%; in experiment [2] (421 g a.i./ha, 7 DAA), 76%; in experiment [2] (421 g a.i./ha, 14 DAA), 81%. Also, the “State of Defoliation (%)” value was 50% in experiment [3] (421 g a.i./ha, 4 DAA); 56% in experiment [3] (421 g a.i./ha, 7 DAA); 53% in experiment [3] (421 g a.i./ha, 14 DAA). Also, the inhibition at 841 g/ha in experiment [1] (Gossypium hirsutum, 504 h, read-out: Regrowth Inhibition (%)) was determined as 25%. Further, the inhibition at 421 g/ha in experiment [2] (336 h, read-out: Plant Stalk (Below 15.3-cm) Regrowth Inhibition (%)) is 84%; in experiment [2] (336 h, read-out: Plant Terminal (Top 15.3-cm) Regrowth Inhibition (%)), 47%; in experiment [2] (528 h, read-out: Plant Stalk (Below 15.3-cm) Regrowth Inhibition (%)), 29%; in experiment [3] (read-out: Plant Stalk (Below 15.3-cm) Regrowth Inhibition (%)) it was 81%; in experiment [3] (read-out: Plant Terminal (Top 15.3-cm) Regrowth Inhibition (%)) it was 44%.

Take `O=P(O)(O)CCCl` [Ethephon, reference compound]: the “State of Defoliation (%)” value is 54% in experiment [2] (1262 g a.i./ha, 4 DAA); 73% in experiment [2] (1262 g a.i./ha, 7 DAA); 79% in experiment [2] (1262 g a.i./ha, 14 DAA); 58% in experiment [3] (1262 g a.i./ha, 4 DAA); 63% in experiment [3] (1262 g a.i./ha, 7 DAA); 48% in experiment [3] (1262 g a.i./ha, 14 DAA). For the same compound, the inhibition at 1262 g/ha in experiment [2] (336 h, 1262 g a.i./ha, 14 DAA, read-out: Plant Stalk (Below 15.3-cm) Regrowth Inhibition (%)) came out at 90%; in experiment [2] (336 h, 1262 g a.i./ha, 14 DAA, read-out: Plant Terminal (Top 15.3-cm) Regrowth Inhibition (%)), 75%; in experiment [2] (528 h, 1262 g a.i./ha, 22 DAA, read-out: Plant Stalk (Below 15.3-cm) Regrowth Inhibition (%)), 22%; in experiment [3] (1262 g a.i./ha, 14 DAA, read-out: Plant Stalk (Below 15.3-cm) Regrowth Inhibition (%)) it was 80%; in experiment [3] (1262 g a.i./ha, 14 DAA, read-out: Plant Terminal (Top 15.3-cm) Regrowth Inhibition (%)) it was 60%.

As usually defined, the inhibition is how much of the control response was suppressed.

These data come from patent US20090247404A1, “METHOD FOR IMPROVING HARVESTABILITY OF CROPS” (priority 2006, published 2009).
